Laboratory results from ChEMBL document CHEMBL1140184, “Synthesis and structure-activity relationship studies of highly potent novel oxazolidinone antibacterials” (2008).
In brackets after ≈: the same amount, converted by molar mass.

Assays:
Type in all cases: functional
[1] = system: Staphylococcus aureus; experiment: Antibacterial activity against methicillin-sensitive Staphylococcus aureus Smith by agar dilution method
[2] = system: Streptococcus pneumoniae; experiment: Antibacterial activity against penicillin-resistant Streptococcus pneumoniae PR44 by agar dilution method
[3] = system: Enterococcus faecium; experiment: Antibacterial activity against vancomycin-resistant Enterococcus faecium A2280 by agar dilution method
[4] = system: Haemophilus influenzae; experiment: Antibacterial activity against Haemophilus influenzae IID983 by agar dilution method
[5] = system: Staphylococcus aureus; experiment: Antibacterial activity against methicillin-resistant Staphylococcus aureus TK7 by agar dilution method
[6] = system: Streptococcus pneumoniae; experiment: Antibacterial activity against penicillin-susceptible Streptococcus pneumoniae IID553 by agar dilution method

SMILES	MIC [1] [µg/mL]	MIC [2] [µg/mL]	MIC [3] [µg/mL]	MIC [4] [µg/mL]	MIC [5] [µg/mL]	MIC [6] [µg/mL]
N#C[C@]1(c2ccc(-c3ccc(N4C[C@H](Cn5ccnn5)OC4=O)cc3)cn2)[C@@H]2CS(=O)(=O)C[C@@H]21	0.06 (≈ 0.126 µM)	0.06 (≈ 0.126 µM)	0.125 (≈ 0.262 µM)	4 (≈ 8.39 µM)	0.06 (≈ 0.126 µM)	0.06 (≈ 0.126 µM)
N#C[C@]1(c2ccc(-c3ccc(N4C[C@H](CNc5ccon5)OC4=O)cc3F)cn2)[C@@H]2CNC[C@@H]21	0.125 (≈ 0.271 µM)	0.25 (≈ 0.543 µM)	0.5 (≈ 1.09 µM)	> 16	0.125 (≈ 0.271 µM)	0.25 (≈ 0.543 µM)
N#C[C@]1(c2ccc(-c3ccc(N4C[C@H](Cn5ccnn5)OC4=O)cc3F)cn2)[C@@H]2CNC[C@@H]21	0.06 (≈ 0.135 µM)	0.06 (≈ 0.135 µM)	0.125 (≈ 0.281 µM)	2 (≈ 4.49 µM)	0.06 (≈ 0.135 µM)	0.06 (≈ 0.135 µM)
N#C[C@]1(c2ccc(-c3c(F)cc(N4C[C@H](Cn5ccnn5)OC4=O)cc3F)cn2)[C@@H]2CS(=O)(=O)C[C@@H]21	0.06 (≈ 0.117 µM)	0.06 (≈ 0.117 µM)	0.125 (≈ 0.244 µM)	4 (≈ 7.8 µM)	0.06 (≈ 0.117 µM)	0.06 (≈ 0.117 µM)
COC(=S)NC[C@H]1CN(c2ccc(-c3ccc([C@@]4(C#N)[C@@H]5CNC[C@@H]54)nc3)c(F)c2)C(=O)O1	0.03 (≈ 0.0642 µM)	0.03 (≈ 0.0642 µM)	0.06 (≈ 0.128 µM)	0.5 (≈ 1.07 µM)	0.03 (≈ 0.0642 µM)	0.03 (≈ 0.0642 µM)
CC(=O)NC[C@H]1CN(c2ccc(N3CCOCC3)c(F)c2)C(=O)O1 [LINEZOLID]	1 (≈ 2.96 µM)		2 (≈ 5.93 µM)	16 (≈ 47.4 µM)	1 (≈ 2.96 µM)	
N#C[C@]1(c2ccc(-c3ccc(N4C[C@H](Cn5ccnn5)OC4=O)cc3)cn2)[C@@H]2CNC[C@@H]21	0.125 (≈ 0.292 µM)	0.125 (≈ 0.292 µM)	0.25 (≈ 0.585 µM)	2 (≈ 4.68 µM)	0.125 (≈ 0.292 µM)	0.125 (≈ 0.292 µM)
CC(=S)NC[C@H]1CN(c2ccc(-c3ccc([C@@]4(C#N)[C@@H]5CNC[C@@H]54)nc3)c(F)c2)C(=O)O1	0.06 (≈ 0.133 µM)	0.03 (≈ 0.0664 µM)	0.06 (≈ 0.133 µM)	2 (≈ 4.43 µM)	0.03 (≈ 0.0664 µM)	0.06 (≈ 0.133 µM)
N#C[C@]1(c2ccc(-c3ccc(N4C[C@H](Cn5ccnn5)OC4=O)cc3F)cn2)[C@@H]2CN(C(=O)CO)C[C@@H]21	0.06 (≈ 0.119 µM)	0.06 (≈ 0.119 µM)	0.125 (≈ 0.248 µM)	4 (≈ 7.94 µM)	0.06 (≈ 0.119 µM)	0.06 (≈ 0.119 µM)
N#C[C@]1(c2ccc(-c3ccc(N4C[C@H](Cn5ccnn5)OC4=O)cc3)cn2)[C@@H]2C[S+]([O-])C[C@@H]21 (stereo not given in full)	0.125 (≈ 0.271 µM)	0.125 (≈ 0.271 µM)	0.25 (≈ 0.543 µM)	8 (≈ 17.4 µM)	0.125 (≈ 0.271 µM)	0.125 (≈ 0.271 µM)
N#C[C@]1(c2ccc(-c3ccc(N4C[C@H](Cn5ccnn5)OC4=O)cc3F)cc2)[C@@H]2CNC[C@@H]21	0.125 (≈ 0.281 µM)	0.06 (≈ 0.135 µM)	0.25 (≈ 0.562 µM)	4 (≈ 9 µM)	0.06 (≈ 0.135 µM)	0.125 (≈ 0.281 µM)
N#C[C@]1(c2ccc(-c3ccc(N4C[C@H](CNC(=O)C(F)F)OC4=O)cc3F)cn2)[C@@H]2CNC[C@@H]21	0.125 (≈ 0.265 µM)	0.06 (≈ 0.127 µM)	0.25 (≈ 0.53 µM)	2 (≈ 4.24 µM)	0.125 (≈ 0.265 µM)	0.06 (≈ 0.127 µM)
N#C[C@]1(c2ccc(-c3ccc(N4C[C@H](Cn5ccnn5)OC4=O)cc3F)cn2)[C@@H]2CS(=O)(=O)C[C@@H]21	0.06 (≈ 0.121 µM)	0.06 (≈ 0.121 µM)	0.06 (≈ 0.121 µM)	4 (≈ 8.09 µM)	0.125 (≈ 0.253 µM)	0.125 (≈ 0.253 µM)
CN1C[C@@H]2[C@H](C1)[C@@]2(C#N)c1ccc(-c2ccc(N3C[C@H](Cn4ccnn4)OC3=O)cc2F)cn1	0.06 (≈ 0.131 µM)	0.06 (≈ 0.131 µM)	0.25 (≈ 0.544 µM)	4 (≈ 8.71 µM)	0.06 (≈ 0.131 µM)	0.06 (≈ 0.131 µM)
N#CN1C[C@@H]2[C@H](C1)[C@@]2(C#N)c1ccc(-c2ccc(N3C[C@H](Cn4ccnn4)OC3=O)cc2F)cn1	0.06 (≈ 0.128 µM)	0.06 (≈ 0.128 µM)	0.06 (≈ 0.128 µM)	2 (≈ 4.25 µM)	0.06 (≈ 0.128 µM)	0.06 (≈ 0.128 µM)
CCC(=O)NC[C@H]1CN(c2ccc(-c3ccc([C@@]4(C#N)[C@@H]5CNC[C@@H]54)nc3)c(F)c2)C(=O)O1	0.25 (≈ 0.556 µM)	0.125 (≈ 0.278 µM)	0.25 (≈ 0.556 µM)	8 (≈ 17.8 µM)	0.25 (≈ 0.556 µM)	0.25 (≈ 0.556 µM)
N#C[C@]1(c2ccc(-c3c(F)cc(N4C[C@H](Cn5ccnn5)OC4=O)cc3F)cn2)[C@@H]2COC[C@@H]21	0.06 (≈ 0.129 µM)	0.125 (≈ 0.269 µM)	0.25 (≈ 0.538 µM)	4 (≈ 8.61 µM)	0.06 (≈ 0.129 µM)	0.25 (≈ 0.538 µM)
